Reference: PubChem BioAssay (NCI)
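Following 48 hours of exposure in 96-well plates, responses at five concentrations were used to interpolate endpoints linearly. GI50 = concentration required for 50% inhibition of growth. TGI marks complete inhibition of growth.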

Columns and labels:
Experiment in all cases: NCI tumour cell line growth inhibition, 48 h
TK-10 renal = tested on: TK-10 renal
IGROV1 ovarian = tested on: IGROV1 ovarian
COLO 205 colon = tested on: COLO 205 colon
A549 NSCLC = tested on: A549 NSCLC
UACC-62 melanoma = tested on: UACC-62 melanoma
SN12C renal = tested on: SN12C renal
KM12 colon = tested on: KM12 colon
OVCAR-4 ovarian = tested on: OVCAR-4 ovarian
U251 CNS = tested on: U251 CNS
HL-60(TB) leukemia = tested on: HL-60(TB) leukemia
OVCAR-5 ovarian = tested on: OVCAR-5 ovarian
MOLT-4 leukemia = tested on: MOLT-4 leukemia
SK-MEL-2 melanoma = tested on: SK-MEL-2 melanoma
RPMI-8226 leukemia = tested on: RPMI-8226 leukemia
NCI-H460 lung = tested on: NCI-H460 lung
HOP-92 NSCLC = tested on: HOP-92 NSCLC
SF-539 CNS = tested on: SF-539 CNS
NCI-H226 lung = tested on: NCI-H226 lung
SF-268 CNS = tested on: SF-268 CNS
OVCAR-8 ovarian = tested on: OVCAR-8 ovarian
HCT-116 colon = tested on: HCT-116 colon
EKVX NSCLC = tested on: EKVX NSCLC
SF-295 CNS = tested on: SF-295 CNS
CCRF-CEM leukemia = tested on: CCRF-CEM leukemia
HOP-18 NSCLC = tested on: HOP-18 NSCLC
OVCAR-3 ovarian = tested on: OVCAR-3 ovarian
SK-MEL-5 melanoma = tested on: SK-MEL-5 melanoma
CAKI-1 renal = tested on: CAKI-1 renal
HOP-62 NSCLC = tested on: HOP-62 NSCLC
NCI-H522 lung = tested on: NCI-H522 lung
SNB-75 CNS = tested on: SNB-75 CNS
SW-620 colon = tested on: SW-620 colon
SK-OV-3 ovarian = tested on: SK-OV-3 ovarian
SNB-19 CNS = tested on: SNB-19 CNS
HCT-15 colon = tested on: HCT-15 colon
DLD-1 colon = tested on: DLD-1 colon
M14 melanoma = tested on: M14 melanoma
HCC-2998 colon = tested on: HCC-2998 colon
786-0 renal = tested on: 786-0 renal
SK-MEL-28 melanoma = tested on: SK-MEL-28 melanoma
A498 renal = tested on: A498 renal
LXFL 529 NSCLC = tested on: LXFL 529 NSCLC
DMS 114 small cell lung = tested on: DMS 114 small cell lung
K-562 leukemia = tested on: K-562 leukemia
NCI-H23 lung = tested on: NCI-H23 lung
KM20L2 colon = tested on: KM20L2 colon
LOX IMVI melanoma = tested on: LOX IMVI melanoma
MALME-3M melanoma = tested on: MALME-3M melanoma
HT29 colon = tested on: HT29 colon
M19-MEL melanoma = tested on: M19-MEL melanoma
DMS 273 small cell lung = tested on: DMS 273 small cell lung
ACHN renal = tested on: ACHN renal
UO-31 renal = tested on: UO-31 renal
SNB-78 CNS = tested on: SNB-78 CNS
RXF 393 renal = tested on: RXF 393 renal
SR leukemia = tested on: SR leukemia
UACC-257 melanoma = tested on: UACC-257 melanoma

CCCC(=O)c1ccc2c(ccc(=O)n2C)c1
TGI (TK-10 renal): > 100 µM
TGI (IGROV1 ovarian): > 100 µM
TGI (COLO 205 colon): > 100 µM
TGI (A549 NSCLC): > 100 µM
TGI (UACC-62 melanoma): > 100 µM
TGI (SN12C renal): > 100 µM
TGI (KM12 colon): > 100 µM
TGI (OVCAR-4 ovarian): > 100 µM
TGI (U251 CNS): > 100 µM
TGI (HL-60(TB) leukemia): > 100 µM
TGI (OVCAR-5 ovarian): > 100 µM
TGI (MOLT-4 leukemia): > 100 µM
TGI (SK-MEL-2 melanoma): > 100 µM
TGI (RPMI-8226 leukemia): > 100 µM
TGI (NCI-H460 lung): > 100 µM
TGI (HOP-92 NSCLC): > 100 µM
TGI (SF-539 CNS): > 100 µM
TGI (NCI-H226 lung): > 100 µM
TGI (SF-268 CNS): > 100 µM
TGI (OVCAR-8 ovarian): > 100 µM
TGI (HCT-116 colon): > 100 µM
TGI (EKVX NSCLC): > 100 µM
TGI (SF-295 CNS): > 100 µM
TGI (CCRF-CEM leukemia): > 100 µM
TGI (HOP-18 NSCLC): > 100 µM
TGI (OVCAR-3 ovarian): > 100 µM
TGI (SK-MEL-5 melanoma): > 100 µM
TGI (CAKI-1 renal): > 100 µM
TGI (HOP-62 NSCLC): > 100 µM
TGI (NCI-H522 lung): > 100 µM
TGI (SNB-75 CNS): 92.3 µM
TGI (SW-620 colon): > 100 µM
TGI (SK-OV-3 ovarian): > 100 µM
TGI (SNB-19 CNS): > 100 µM
TGI (HCT-15 colon): > 100 µM
TGI (DLD-1 colon): > 100 µM
TGI (M14 melanoma): > 100 µM
TGI (HCC-2998 colon): > 100 µM
TGI (786-0 renal): > 100 µM
TGI (SK-MEL-28 melanoma): > 100 µM
TGI (A498 renal): > 100 µM
TGI (LXFL 529 NSCLC): > 100 µM
TGI (DMS 114 small cell lung): > 100 µM
TGI (K-562 leukemia): > 100 µM
TGI (NCI-H23 lung): > 100 µM
TGI (KM20L2 colon): > 100 µM
TGI (LOX IMVI melanoma): > 100 µM
TGI (MALME-3M melanoma): > 100 µM
TGI (HT29 colon): > 100 µM
TGI (M19-MEL melanoma): > 100 µM
TGI (DMS 273 small cell lung): > 100 µM

N.N.NCCCCCCN.O=C([O-])CCl.O=C([O-])CCl.O=C([O-])CCl.O=C([O-])CCl.[Pt+4].[Pt+4]
GI50 (TK-10 renal): > 50 µM
TGI (TK-10 renal): > 50 µM
GI50 (IGROV1 ovarian): > 50 µM
TGI (IGROV1 ovarian): > 50 µM
GI50 (COLO 205 colon): 9.54 µM
TGI (COLO 205 colon): > 50 µM
GI50 (ACHN renal): 35.9 µM
TGI (ACHN renal): > 50 µM
GI50 (UO-31 renal): > 50 µM
TGI (UO-31 renal): > 50 µM
GI50 (SNB-78 CNS): > 50 µM
TGI (SNB-78 CNS): > 50 µM
GI50 (A549 NSCLC): > 50 µM
TGI (A549 NSCLC): > 50 µM
GI50 (SN12C renal): 3.74 µM
TGI (SN12C renal): > 50 µM
GI50 (KM12 colon): > 50 µM
TGI (KM12 colon): > 50 µM
GI50 (OVCAR-4 ovarian): > 50 µM
TGI (OVCAR-4 ovarian): > 50 µM
GI50 (U251 CNS): 25.2 µM
TGI (U251 CNS): > 50 µM
GI50 (HL-60(TB) leukemia): 15.5 µM
TGI (HL-60(TB) leukemia): > 50 µM
GI50 (OVCAR-5 ovarian): > 50 µM
TGI (OVCAR-5 ovarian): > 50 µM
GI50 (MOLT-4 leukemia): 1.73 µM
TGI (MOLT-4 leukemia): > 50 µM
GI50 (SK-MEL-2 melanoma): > 50 µM
TGI (SK-MEL-2 melanoma): > 50 µM
GI50 (RPMI-8226 leukemia): > 50 µM
TGI (RPMI-8226 leukemia): > 50 µM
GI50 (NCI-H460 lung): 3.11 µM
TGI (NCI-H460 lung): > 50 µM
GI50 (SF-539 CNS): 45.2 µM
TGI (SF-539 CNS): > 50 µM
GI50 (NCI-H226 lung): 17 µM
TGI (NCI-H226 lung): > 50 µM
GI50 (SF-268 CNS): 18.8 µM
TGI (SF-268 CNS): > 50 µM
GI50 (OVCAR-8 ovarian): > 50 µM
TGI (OVCAR-8 ovarian): > 50 µM
GI50 (RXF 393 renal): 13.1 µM
TGI (RXF 393 renal): > 50 µM
GI50 (HCT-116 colon): > 50 µM
TGI (HCT-116 colon): > 50 µM
GI50 (EKVX NSCLC): > 50 µM
TGI (EKVX NSCLC): > 50 µM
GI50 (SR leukemia): 8.23 µM
TGI (SR leukemia): > 50 µM
GI50 (SF-295 CNS): > 50 µM
TGI (SF-295 CNS): > 50 µM
GI50 (CCRF-CEM leukemia): 2.73 µM
TGI (CCRF-CEM leukemia): > 50 µM
GI50 (HOP-18 NSCLC): > 50 µM
TGI (HOP-18 NSCLC): > 50 µM
GI50 (OVCAR-3 ovarian): > 50 µM
TGI (OVCAR-3 ovarian): > 50 µM
GI50 (SK-MEL-5 melanoma): > 50 µM
TGI (SK-MEL-5 melanoma): > 50 µM
GI50 (CAKI-1 renal): 24.7 µM
TGI (CAKI-1 renal): > 50 µM
GI50 (HOP-62 NSCLC): 6.04 µM
TGI (HOP-62 NSCLC): > 50 µM
GI50 (NCI-H522 lung): 10.9 µM
TGI (NCI-H522 lung): > 50 µM
GI50 (SNB-75 CNS): 8.34 µM
TGI (SNB-75 CNS): > 50 µM
GI50 (SW-620 colon): > 50 µM
TGI (SW-620 colon): > 50 µM
GI50 (SK-OV-3 ovarian): > 50 µM
TGI (SK-OV-3 ovarian): > 50 µM
GI50 (SNB-19 CNS): 27.8 µM
TGI (SNB-19 CNS): > 50 µM
GI50 (HCT-15 colon): > 50 µM
TGI (HCT-15 colon): > 50 µM
GI50 (DLD-1 colon): > 50 µM
TGI (DLD-1 colon): > 50 µM
GI50 (M14 melanoma): > 50 µM
TGI (M14 melanoma): > 50 µM
GI50 (HCC-2998 colon): > 50 µM
TGI (HCC-2998 colon): > 50 µM
GI50 (786-0 renal): > 50 µM
TGI (786-0 renal): > 50 µM
GI50 (SK-MEL-28 melanoma): > 50 µM
TGI (SK-MEL-28 melanoma): > 50 µM
GI50 (A498 renal): > 50 µM
TGI (A498 renal): > 50 µM
GI50 (LXFL 529 NSCLC): > 50 µM
TGI (LXFL 529 NSCLC): > 50 µM
GI50 (K-562 leukemia): > 50 µM
TGI (K-562 leukemia): > 50 µM
GI50 (NCI-H23 lung): 27.1 µM
TGI (NCI-H23 lung): > 50 µM
GI50 (LOX IMVI melanoma): > 50 µM
TGI (LOX IMVI melanoma): > 50 µM
GI50 (UACC-257 melanoma): > 50 µM
TGI (UACC-257 melanoma): > 50 µM
GI50 (MALME-3M melanoma): > 50 µM
TGI (MALME-3M melanoma): > 50 µM
GI50 (HT29 colon): 37.1 µM
TGI (HT29 colon): > 50 µM
GI50 (DMS 273 small cell lung): > 50 µM
TGI (DMS 273 small cell lung): > 50 µM
